The results in this text go back to ChEMBL document CHEMBL1142460, “2,4(5)-Diarylimidazoles: synthesis and biological evaluation of a new class of sodium channel blockers against hNa(v)1.2” (Bioorg Med Chem Lett, 2008).

Test [1] addresses Sodium channel protein type 2 subunit alpha (Homo sapiens) (UniProt Q99250). Nature of the test: Inhibition of Nav1.2 channel in HEK cells at 100 uM by patch clamp technique. It is filed as cell-based. To be noted: HEK293. Further details: scale not given: the % may be the effect or the level left. On the technique in general: In patch-clamp work, channel activity is measured electrically.

Test [2] has the same target. Kind of test: Inhibition of Nav1.2 channel in HEK cells at 10 uM by patch clamp technique. It is filed as cell-based. On the set-up: scale not given: the % may be the effect or the level left. To be noted: HEK293.

Chain of Sodium channel protein type 2 subunit alpha (Homo sapiens) (Q99250 whole entry, looked up): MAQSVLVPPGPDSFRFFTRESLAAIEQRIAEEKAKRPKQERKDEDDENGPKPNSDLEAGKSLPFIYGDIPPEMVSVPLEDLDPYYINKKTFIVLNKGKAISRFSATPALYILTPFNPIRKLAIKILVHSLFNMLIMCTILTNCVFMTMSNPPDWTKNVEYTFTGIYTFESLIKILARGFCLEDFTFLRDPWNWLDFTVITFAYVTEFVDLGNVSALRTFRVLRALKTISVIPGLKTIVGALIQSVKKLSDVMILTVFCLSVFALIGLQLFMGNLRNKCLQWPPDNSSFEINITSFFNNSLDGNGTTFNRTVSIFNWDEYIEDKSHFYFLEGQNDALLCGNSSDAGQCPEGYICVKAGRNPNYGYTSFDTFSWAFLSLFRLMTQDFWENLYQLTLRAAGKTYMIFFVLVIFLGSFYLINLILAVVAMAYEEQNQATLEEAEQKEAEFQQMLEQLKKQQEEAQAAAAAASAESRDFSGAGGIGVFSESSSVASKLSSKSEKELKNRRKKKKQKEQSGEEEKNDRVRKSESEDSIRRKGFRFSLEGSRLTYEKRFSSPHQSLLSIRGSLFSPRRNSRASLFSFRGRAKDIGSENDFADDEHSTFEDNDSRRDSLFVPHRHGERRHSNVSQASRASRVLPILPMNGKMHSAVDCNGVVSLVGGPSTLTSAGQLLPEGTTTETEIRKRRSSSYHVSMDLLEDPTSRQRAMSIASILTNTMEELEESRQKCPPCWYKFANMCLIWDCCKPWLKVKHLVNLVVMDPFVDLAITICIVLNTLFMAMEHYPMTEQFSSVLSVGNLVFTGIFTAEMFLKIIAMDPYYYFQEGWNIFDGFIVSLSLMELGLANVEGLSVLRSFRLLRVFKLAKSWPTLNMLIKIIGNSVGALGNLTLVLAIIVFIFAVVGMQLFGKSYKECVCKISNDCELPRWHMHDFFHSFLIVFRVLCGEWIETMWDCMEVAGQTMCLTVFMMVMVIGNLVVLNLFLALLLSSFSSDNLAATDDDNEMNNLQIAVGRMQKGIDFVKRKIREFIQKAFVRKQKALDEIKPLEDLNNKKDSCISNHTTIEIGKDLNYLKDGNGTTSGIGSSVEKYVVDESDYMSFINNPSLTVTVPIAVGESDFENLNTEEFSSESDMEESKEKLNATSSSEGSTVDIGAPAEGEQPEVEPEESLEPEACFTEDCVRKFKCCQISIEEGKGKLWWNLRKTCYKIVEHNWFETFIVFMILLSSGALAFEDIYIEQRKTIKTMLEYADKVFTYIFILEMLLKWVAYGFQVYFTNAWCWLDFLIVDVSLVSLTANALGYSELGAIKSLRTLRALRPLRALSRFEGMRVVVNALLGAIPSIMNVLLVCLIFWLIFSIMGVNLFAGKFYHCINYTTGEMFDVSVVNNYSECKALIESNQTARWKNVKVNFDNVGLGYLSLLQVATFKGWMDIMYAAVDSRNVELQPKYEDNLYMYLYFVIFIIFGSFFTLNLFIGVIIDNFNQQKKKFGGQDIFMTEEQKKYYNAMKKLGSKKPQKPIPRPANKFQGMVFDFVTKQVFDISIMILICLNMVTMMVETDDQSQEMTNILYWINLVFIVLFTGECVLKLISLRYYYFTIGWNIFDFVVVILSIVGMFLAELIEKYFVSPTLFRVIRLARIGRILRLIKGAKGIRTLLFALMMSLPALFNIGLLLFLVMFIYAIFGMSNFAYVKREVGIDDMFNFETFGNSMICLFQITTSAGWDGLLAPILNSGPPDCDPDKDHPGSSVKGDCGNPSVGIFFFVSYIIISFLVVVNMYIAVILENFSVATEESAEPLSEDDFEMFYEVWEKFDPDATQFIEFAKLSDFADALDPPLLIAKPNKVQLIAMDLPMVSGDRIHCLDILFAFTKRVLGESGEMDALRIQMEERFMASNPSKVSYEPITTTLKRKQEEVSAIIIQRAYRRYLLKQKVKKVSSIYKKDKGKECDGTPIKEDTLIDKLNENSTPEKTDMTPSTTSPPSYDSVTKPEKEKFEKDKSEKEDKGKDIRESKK

For the compound `c1ccc(-c2c[nH]c(-c3ccsc3)n2)cc1`, the figures for the Activity in test [1] and in test [2] were 70.9% and 5.1%, respectively.
`c1ccc(-c2c[nH]c(-c3ccoc3)n2)cc1`: the Activity is 27.3% in test [1] and 11.9% in test [2].
Consider `Nc1nnc(-c2cccc(Cl)c2Cl)c(N)n1`, for which the results for the Activity in test [1] and in test [2] were 35.1% and 12.1%, respectively.
In the case of `c1ccc(-c2c[nH]c(-c3ccco3)n2)cc1`, the results for the Activity in test [1] and in test [2] were 37.7% and 2.7%, respectively.
Turning to `c1ccc(-c2c[nH]c(-c3ccccc3)n2)cc1`, the results for the Activity in test [1] and in test [2] were 80.5% and 7.8%, respectively.
For `c1ccc(-c2c[nH]c(-c3cc4ccccc4o3)n2)cc1` the same measures were 72.4% and 37.7%.
For `O=C1NC(=O)C(c2ccccc2)(c2ccccc2)N1` the same measures were 21.2% and 10.6%.
In the case of `c1ccc(-c2c[nH]c(-c3ccncc3)n2)cc1`, the Activity worked out at 40.7% in test [1] and 8% in test [2].
On to `c1ccc(-c2c[nH]c(-c3cccnc3)n2)cc1`, for which the values for the Activity in test [1] and in test [2] were 22.5% and 4.7%, respectively.
For the compound `c1ccc(-c2c[nH]c(C3CCCCC3)n2)cc1`, the Activity amounted to 91.5% in test [1] and 26.7% in test [2].
